# Test results as given in US10023565B2, “N,N′ substituted piperidinamine compounds, and preparation method and usage thereof” (Institute of Pharmacology and Toxicology Academy of …, priority 2013, dated 2018).
# pIC50: −log10 of the molar value.
# Columns and labels:
# BT/Lap^R1.0 = experiment: Antitumor bioactivity evaluation, breast cancer cells (ATPlite); assay type: cell-based, human; conditions: Homo sapiens
# Procedure, shortened: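 Single-concentration screen: 5 μM compound, or 5 μM compound plus 1 μM lapatinib, on adhered cells (5000/well) for 72 h. Viability by ATPlite luminescence relative to solvent control.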
# [1] = test system: tumor cells and normal cells (12 kinds of cells); experiment: Extended test against tumor cell lines, statements on the whole panel; assay type: cell-based; conditions: 12 kinds of cells, 0.016-4 μM, 72 hours
# Description: (§1) The compounds of Examples 36/37/40/47/49 were used to carry out extended test against tumor cell lines, wherein 12 kinds of cells were selected, including liver cancer cells, gastric cancer cells, pancreatic cancer cells, colorectal cancer cells, lung cancer cells and normal cells, which were shown in Table 12:
# (§2) A 100 mm culture dish with overgrown adherent cells was digested with 1 ml 0.25% trypsin (GIBCO) at 37° C. for 5 min, and the reaction was terminated with 2 ml culture medium (containing 10% FBS, GIBCO). The cells were scattered and collected, after counting, diluted to 1×10^5 cells/ml, and seeded into a 96-well plate at 50 μl/well, 5000 cells/well, excluding the peripheral circle of wells in which no cell was added, but PBS was added, 54 wells in total, and then incubated at 37° C. for 24 hours for adhering.
# (§3) The test sample was diluted to final concentration of 4, 1, 0.25, 0.063, 0.016 μM, culture medium was filled in control well, 3 parellel wells were set for each concentration, 50 μl each well, followed by incubation at 37° C. for 72 hours.
# (§4) 3) Test after incubation at 37° C. for 72 hours: 50 μL of ATPlite kitsubstrate solution was added in each well, and vibrated for 3 min, followed by placing aside in darkness for 10 min, and then supernatant 100 μl/well was taken and placed on a luminescence test plate; the luminescence test plate that has been fully incubated was placed in a luminescence test instrument, to read luminescence value.
# (§5) Cell survival rate (%)=Experimental group RLU/control group RLU×100%. The experimental data were subjected to data analysis and processing by utilizing GraphPad software.
# A549 = experiment: Extended test against tumor cell lines (ATPlite); assay type: cell-based; conditions: A549 (lung cancer), 72 hours
# Description: as §1, §2, §3, §4, §5
# [2] = test system: WI-38 (human embryonic lung fibroblast); experiment: Extended test against tumor cell lines (ATPlite); assay type: cell-based; conditions: WI-38 (normal cells), 72 hours
# Description: as §1, §2, §3, §4, §5
# H460 = experiment: Extended test against tumor cell lines (ATPlite); assay type: cell-based; conditions: H460 (lung cancer), 72 hours
# Description: as §1, §2, §3, §4, §5
# COLO205 = experiment: Extended test against tumor cell lines (ATPlite); assay type: cell-based; conditions: COLO205 (colorectal cancer), 72 hours
# Description: as §1, §2, §3, §4, §5
# HT-29 = experiment: Extended test against tumor cell lines (ATPlite); assay type: cell-based; conditions: HT-29 (colorectal cancer), 72 hours
# Description: as §1, §2, §3, §4, §5
# HepG2 = experiment: Extended test against tumor cell lines (ATPlite); assay type: cell-based; conditions: HepG2 (liver cancer), 72 hours
# Description: as §1, §2, §3, §4, §5
# AsPC-1 = experiment: Extended test against tumor cell lines (ATPlite); assay type: cell-based; conditions: AsPC-1 (pancreatic cancer), 72 hours
# Description: as §1, §2, §3, §4, §5
# Huh-7 = experiment: Extended test against tumor cell lines (ATPlite); assay type: cell-based; conditions: Huh-7 (liver cancer), 72 hours
# Description: as §1, §2, §3, §4, §5
# [3] = test system: MRC5 (lung epithelial fibroblast); experiment: Extended test against tumor cell lines (ATPlite); assay type: cell-based; conditions: MRC5 (normal cells), 72 hours
# Description: as §1, §2, §3, §4, §5
# MIA-PaCa-2 = experiment: Extended test against tumor cell lines (ATPlite); assay type: cell-based; conditions: MIA-PaCa-2 (pancreatic cancer), 72 hours
# Description: as §1, §2, §3, §4, §5
smiles,measurement,setting,value
"CSc1nccc(N2CCC(N(C)Cc3c(Cl)cccc3Cl)CC2)n1 [Example 49, N-methyl-N-(2,6-dichlorobenzyl)-N-[1-(2-methylthiopyrimidin-4-yl)piperidin-4-yl]amine]",pIC50,BT/Lap^R1.0,6.15
same,inhibition at 5 µM,"BT/Lap^R1.0; test sample 5 μM, 72 hours, read-out: Inhibitory Rate % BT/Lap^R1.0",58.8%
same,inhibition of tumor cells versus cytotoxicity to normal cells,[1],"certain inhibition and cytotoxicity to either tumor cells or normal cells, without significant difference"
same,Survival rate,A549; 0.016 μM,99.9%
same,Survival rate,A549; 0.063 μM,95.1%
same,Survival rate,A549; 0.25 μM,95.2%
same,Survival rate,A549; 1 μM,60.5%
same,Survival rate,A549; 4 μM,40.1%
same,Survival rate,[2]; 0.016 μM,98.5%
same,Survival rate,[2]; 0.063 μM,97.3%
same,Survival rate,[2]; 0.25 μM,92.4%
same,Survival rate,[2]; 1 μM,79.8%
same,Survival rate,[2]; 4 μM,48.4%
same,Survival rate,H460; 0.016 μM,98.4%
same,Survival rate,H460; 0.063 μM,98.3%
same,Survival rate,H460; 0.25 μM,94.2%
same,Survival rate,H460; 1 μM,47.9%
same,Survival rate,H460; 4 μM,19.3%
same,Survival rate,COLO205; 0.016 μM,98.1%
same,Survival rate,COLO205; 0.063 μM,94.2%
same,Survival rate,COLO205; 0.25 μM,95.8%
same,Survival rate,COLO205; 1 μM,83.9%
same,Survival rate,COLO205; 4 μM,4.1%
same,Survival rate,HT-29; 0.016 μM,96.3%
same,Survival rate,HT-29; 0.063 μM,91%
same,Survival rate,HT-29; 0.25 μM,84.7%
same,Survival rate,HT-29; 1 μM,63.9%
same,Survival rate,HT-29; 4 μM,25.1%
same,Survival rate,HepG2; 0.016 μM,101.8%
same,Survival rate,HepG2; 0.063 μM,96.2%
same,Survival rate,HepG2; 0.25 μM,82.1%
same,Survival rate,HepG2; 1 μM,9.5%
same,Survival rate,HepG2; 4 μM,2.4%
same,Survival rate,AsPC-1; 0.016 μM,99.1%
same,Survival rate,AsPC-1; 0.063 μM,97.5%
same,Survival rate,AsPC-1; 0.25 μM,93.8%
same,Survival rate,AsPC-1; 1 μM,64.4%
same,Survival rate,AsPC-1; 4 μM,44.3%
same,Survival rate,Huh-7; 0.016 μM,91.3%
same,Survival rate,Huh-7; 0.063 μM,82%
same,Survival rate,Huh-7; 0.25 μM,70.5%
same,Survival rate,Huh-7; 1 μM,19.4%
same,Survival rate,Huh-7; 4 μM,12.8%
same,Survival rate,[3]; 0.016 μM,100.6%
same,Survival rate,[3]; 0.063 μM,100.1%
same,Survival rate,[3]; 0.25 μM,94.8%
same,Survival rate,[3]; 1 μM,80.8%
same,Survival rate,[3]; 4 μM,41.1%
same,Survival rate,MIA-PaCa-2; 0.016 μM,97.6%
same,Survival rate,MIA-PaCa-2; 0.063 μM,97.4%
same,Survival rate,MIA-PaCa-2; 0.25 μM,92.8%
same,Survival rate,MIA-PaCa-2; 1 μM,33.1%
same,Survival rate,MIA-PaCa-2; 4 μM,22.9%
